Measured values as given in US6989375B2, “Enhanced expression of transgenes” (priority 1996, dated 2006).

Tests used:
Format in all cases: cell-based, human
[1] = system: p53 protein in H1299 cells; assay: Western blot analysis of p53 protein expression with densitometry; details: CDDP = prior CDDP exposure, Adv/CMV/p53 = without prior CDDP
Description: H1299 cells were infected with Ad/CMV/p53 (MOI=1) 48 hrs after CDDP exposure. Cells were then harvested at 6, 12, 24, 36 and 48 hrs after transfection for Western blot analysis of p53 protein expression, as described elsewhere (Diller et al., 1990). Unexposed cells similarly transfected with Ad/CMV/p53 were used as controls. The human NSCLC cell line H322 which overexpresses mutant p53 protein was used as a positive control. Relative quantities of exogenous p53 protein were determined by densitometer (Molecular Dynamics, Sunnyvale, Calif.).

A549 = assay: β-gal expression by X-gal staining after Ad/CMV/β-gal infection of CDDP-treated cells; details: gene transfer 48 hours after exposure to 0.062 μg/ml of CDDP; MOI=10
Description: The human non-small cell lung carcinoma cell lines H1299 and H460 were grown in RPMI-1640 medium supplemented with 5% heat-inactivated fetal calf serum (FCS), 10 mM glutamine, 100 units/ml of penicillin, 100 μg/ml of streptomycin and 0.25 μg/ml of amphotericin B. Human non-small cell lung carcinoma cell lines H358, H226br, and the cervical cancer cell line SiHa were maintained in complete RPMI-1640 medium supplemented with 10% FCS. The cell line A549 (human, non-small cell lung carcinoma) was grown in Ham's F12 nutrient mixture solution (Gibco BRL, Gaithersburg, Md.) similarly supplemented with antibiotics, glutamine and 10% FCS.
Gene Delivery Protocol: In vitro gene delivery was performed by incubating cells in six-well plates (Falcon Plastics, Lincoln Park, N.J.) for two hours with Adv/CMV/β-gal in appropriate medium supplemented with 2% FCS. The multiplicity of infection (MOI: number of viral particles per target cell) was based on cell counts of untreated wells. Fresh, complete medium with the appropriate concentration of FCS was then added to the wells at the end of the infection period and cells were then incubated for 20 hours at 37° C., 5% CO2. […] The transduction efficiency by Adv/CMV/β-gal was determined by the percentage of positive stained cells (blue) for β-galactosidase activity (1000 cells counted per well).

H1299 cells [2] = assay: Quantitation of β-gal gene expression by ONPG assay at increasing MOI; details: for Enhancement index: CDDP 0.062 μg/ml×24 h; for β-gal activity (ONPG): CDDP = cells treated 0.062 μg/ml×24 h, infected 2 days later, Ad/CMV/β-gal = control cells without CDDP
Description: (§1) Quantitation of β-gal Gene Expression: Adenoviral infection was performed 2 days after exposure to CDDP (0.062 μg/ml×24 hours), with cell extracts being obtained 24 hours later and quantitatively assayed for the expression of the β-galactosidase gene using O-nitrophenyl β-d-galactoside (ONPG) as a substrate (MacGregor et al., 1987). The magnitude of CDDP-induced enhancement of gene expression at a given MOI was determined by calculating the enhancement index: [formula] In Vivo CDDP-Induced Enhancement of β-gal Gene Expression
(§2) To determine if prior incubation of target cells with CDDP would result in an increase in the ability of cells to take up gene-delivering vectors or an increase in the expression of successfully delivered genes, β-gal gene expression was quantitated in H1299 and H460 cell lines treated with CDDP and then infected with Ad/CMV/β-gal at increasing MOI's. If CDDP mediates an enhancement of adenovirus uptake as compared to non-treated controls, then there should be a proportional increase in enhancement indices with increasing MOI's. […] Similarly, β-gal gene expression in CDDP-treated H460 cells increased from 0.28±0.06 to 12.2±2.1 U/mg protein, as compared to β-gal gene expression in control H460 cells of 0.056±0.016 to 7.6±1.8 U/mg protein. The enhancement indices in H460 cells, therefore, decreased from a value of 5 at an MOI of 5, to a value of 1.6 at an MOI of 100 (FIG. 2B). This observation implies that CDDP induces an increase in the expression of successfully delivered genes and not an increase in adenovirus uptake.

H460 cells = assay: as above; details: for β-gal gene expression (ONPG): CDDP = treated cells, Ad/CMV/β-gal = control cells without CDDP
Description: as §1, §2

H1299 cells [3] = assay: Cell proliferation assay (daily cell counts); details: for Increased inhibition of tumor proliferation compared to cells transfected with Adv/CMV/p53 only: CDDP 48 hrs prior to Adv/CMV/p53 (MOI 5)
Description: H1299 cells were exposed to CDDP (0.062 μg/ml of medium) for 24 hrs. Cells were then washed twice with PBS, trypsinized and seeded in 6-well plates (10^5 cells/well). Forty eight hours later, cells were infected with Ad/CMV/p53 at the multiplicity of infection (MOI) of 5. Daily cell counts were performed for 5 days following transfection to study the tumor suppression effect of the combination of sequential CDDP and adenovirus-mediated p53 gene transfer. Controls consisted of untreated cells or cells exposed to CDDP only, cells transfected with Ad/CMV/p53 only and cells transfected with d1312 (similar MOI) with or without prior CDDP treatment.

SMILES: N.N.[Cl][Pt][Cl] [CDDP, cis-dichlorodimminocisplatin]
- Relative level of p53 protein (normalized for β-actin) ([1]; 12 hrs after Adv/CMV/p53 transfection (MOI=1)): 0.73
- Relative level of p53 protein (normalized for β-actin) ([1]; 24 hrs after Adv/CMV/p53 transfection (MOI=1)): 1.39
- Relative level of p53 protein (normalized for β-actin) ([1]; 36 hrs after Adv/CMV/p53 transfection (MOI=1)): 1.49
- Relative level of p53 protein (normalized for β-actin) ([1]; 48 hrs after Adv/CMV/p53 transfection (MOI=1)): 1.20
- Magnitude of maximal enhancement of transgene expression (FIG. 4B) (A549): 1.6 fold
- Enhancement index (H1299 cells [2]; MOI 5): 3
- β-gal activity (ONPG) (H1299 cells [2]; MOI 5): 2.2±0.40 U/mg protein
- Enhancement index (H1299 cells [2]; MOI 100): 2.5
- β-gal activity (ONPG) (H1299 cells [2]; MOI 100): 42.0±2.6 U/mg protein
- β-gal gene expression (ONPG) (H460 cells; MOI 5): 0.28±0.06 U/mg protein
- β-gal gene expression (ONPG) (H460 cells; MOI 100): 12.2±2.1 U/mg protein
- Enhancement index (H460 cells; MOI of 5): 5
- Enhancement index (H460 cells; MOI of 100): 1.6
- Effect on cell growth in vitro (H1299 cells [3]; CDDP 0.0625 μg/ml for 24 hrs, alone): no effect on cell growth
- Increased inhibition of tumor proliferation compared to cells transfected with Adv/CMV/p53 only (H1299 cells [3]; day 3 after p53 transfer): 61%
- Increased inhibition of tumor proliferation compared to cells transfected with Adv/CMV/p53 only (H1299 cells [3]; day 5 after p53 transfer): 55%
